Measured values from BindingDB's records for doi:10.1007/s002130100844 (Case Western Reserve University, 2001).
Where “and” joins values, the source holds several entries; their conditions need not be identical. Identical values can stand only once.

Tests used:
[1] = biological target: Kappa-type opioid receptor (Homo sapiens, UniProt P41145)
D(2) dopamine receptor = D(2) dopamine receptor (Rattus norvegicus, UniProt P61169)
[2] = biological target: Sodium-dependent serotonin transporter (Homo sapiens, UniProt P31645)
[3] = biological target: 5-hydroxytryptamine receptor 1E (Homo sapiens, UniProt P28566)
[4] = biological target: Sodium-dependent noradrenaline transporter (Homo sapiens, UniProt P23975)
[5] = biological target: Beta-2 adrenergic receptor (Homo sapiens, UniProt P07550)
Chain of Beta-2 adrenergic receptor (P07550 whole entry): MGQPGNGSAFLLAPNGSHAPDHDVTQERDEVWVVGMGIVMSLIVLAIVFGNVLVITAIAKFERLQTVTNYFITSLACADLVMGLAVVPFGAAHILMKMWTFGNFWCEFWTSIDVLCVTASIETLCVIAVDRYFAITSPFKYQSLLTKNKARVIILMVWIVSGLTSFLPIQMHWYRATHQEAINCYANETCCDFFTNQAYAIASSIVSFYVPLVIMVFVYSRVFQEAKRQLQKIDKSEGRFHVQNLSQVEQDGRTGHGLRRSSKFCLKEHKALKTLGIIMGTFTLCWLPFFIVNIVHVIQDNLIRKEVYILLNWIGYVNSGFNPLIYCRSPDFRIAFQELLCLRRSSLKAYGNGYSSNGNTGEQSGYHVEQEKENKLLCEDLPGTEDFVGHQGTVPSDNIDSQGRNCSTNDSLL

[6] = biological target: 5-hydroxytryptamine receptor 2A (Rattus norvegicus, UniProt P14842)
[7] = biological target: 5-hydroxytryptamine receptor 2C (Rattus norvegicus, UniProt P08909)
Mu-type opioid receptor = Mu-type opioid receptor (Homo sapiens, UniProt P35372)
[8] = biological target: Alpha-1B adrenergic receptor (Homo sapiens, UniProt P35368)
Chain of Alpha-1B adrenergic receptor (P35368 whole entry): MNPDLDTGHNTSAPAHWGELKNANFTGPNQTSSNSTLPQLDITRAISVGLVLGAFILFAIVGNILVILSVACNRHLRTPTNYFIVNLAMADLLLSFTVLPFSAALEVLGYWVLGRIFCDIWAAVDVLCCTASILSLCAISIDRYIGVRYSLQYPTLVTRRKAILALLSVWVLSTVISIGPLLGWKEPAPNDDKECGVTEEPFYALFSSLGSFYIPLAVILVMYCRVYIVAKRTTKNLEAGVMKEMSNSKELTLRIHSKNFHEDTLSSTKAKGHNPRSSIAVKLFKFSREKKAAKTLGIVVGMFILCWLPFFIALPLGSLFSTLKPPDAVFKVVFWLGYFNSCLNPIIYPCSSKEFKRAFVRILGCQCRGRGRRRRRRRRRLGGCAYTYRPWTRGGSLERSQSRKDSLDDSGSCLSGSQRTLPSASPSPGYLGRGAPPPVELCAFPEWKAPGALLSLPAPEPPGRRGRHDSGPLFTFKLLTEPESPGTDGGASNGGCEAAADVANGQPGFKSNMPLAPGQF

[9] = biological target: Alpha-2C adrenergic receptor (Homo sapiens, UniProt P18825)
Chain of Alpha-2C adrenergic receptor (P18825 whole entry): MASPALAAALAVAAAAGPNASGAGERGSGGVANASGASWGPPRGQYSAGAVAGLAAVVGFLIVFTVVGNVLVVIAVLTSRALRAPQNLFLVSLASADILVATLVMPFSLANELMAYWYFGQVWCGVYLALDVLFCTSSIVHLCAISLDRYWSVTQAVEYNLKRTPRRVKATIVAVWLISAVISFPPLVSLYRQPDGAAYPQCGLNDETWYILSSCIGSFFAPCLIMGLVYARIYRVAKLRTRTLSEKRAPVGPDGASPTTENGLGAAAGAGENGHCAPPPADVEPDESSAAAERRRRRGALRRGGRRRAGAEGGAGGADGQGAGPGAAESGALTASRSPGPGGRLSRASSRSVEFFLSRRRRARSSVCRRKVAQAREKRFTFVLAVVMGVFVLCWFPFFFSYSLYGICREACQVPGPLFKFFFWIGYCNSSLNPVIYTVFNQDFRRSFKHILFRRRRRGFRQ

[10] = biological target: Delta-type opioid receptor (Homo sapiens, UniProt P41143)
[11] = biological target: Muscarinic acetylcholine receptor M4 (Homo sapiens, UniProt P08173)
Chain of Muscarinic acetylcholine receptor M4 (P08173 whole entry): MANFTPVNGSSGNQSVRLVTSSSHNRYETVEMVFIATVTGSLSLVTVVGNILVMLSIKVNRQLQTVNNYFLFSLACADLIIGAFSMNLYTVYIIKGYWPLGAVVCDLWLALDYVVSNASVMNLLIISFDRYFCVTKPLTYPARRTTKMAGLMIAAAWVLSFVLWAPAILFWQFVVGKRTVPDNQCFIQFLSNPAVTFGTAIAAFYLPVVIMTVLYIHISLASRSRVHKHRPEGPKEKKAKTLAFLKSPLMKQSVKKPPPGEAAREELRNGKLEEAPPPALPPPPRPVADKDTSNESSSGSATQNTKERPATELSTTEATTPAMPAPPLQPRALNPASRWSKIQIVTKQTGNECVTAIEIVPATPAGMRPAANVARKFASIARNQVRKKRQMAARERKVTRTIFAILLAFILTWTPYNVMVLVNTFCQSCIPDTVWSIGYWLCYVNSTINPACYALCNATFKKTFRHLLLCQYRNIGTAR

[12] = biological target: Muscarinic acetylcholine receptor M3 (Homo sapiens, UniProt P20309)
Chain of Muscarinic acetylcholine receptor M3 (P20309 whole entry): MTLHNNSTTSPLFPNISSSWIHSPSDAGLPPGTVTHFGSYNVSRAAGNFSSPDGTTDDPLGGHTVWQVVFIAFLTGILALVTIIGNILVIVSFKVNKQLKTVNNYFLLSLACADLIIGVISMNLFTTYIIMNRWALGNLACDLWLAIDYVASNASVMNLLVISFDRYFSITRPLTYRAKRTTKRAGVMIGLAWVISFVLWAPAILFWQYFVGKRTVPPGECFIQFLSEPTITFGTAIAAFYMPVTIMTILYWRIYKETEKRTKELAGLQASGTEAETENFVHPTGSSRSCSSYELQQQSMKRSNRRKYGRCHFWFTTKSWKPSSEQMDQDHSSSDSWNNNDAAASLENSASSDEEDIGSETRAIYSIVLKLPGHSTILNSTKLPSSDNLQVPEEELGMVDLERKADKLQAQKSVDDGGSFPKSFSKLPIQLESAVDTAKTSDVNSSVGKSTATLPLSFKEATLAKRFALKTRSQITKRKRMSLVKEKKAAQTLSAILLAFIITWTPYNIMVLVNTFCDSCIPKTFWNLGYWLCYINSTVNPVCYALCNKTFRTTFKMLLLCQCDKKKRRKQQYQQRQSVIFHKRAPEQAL

[13] = biological target: Sodium-dependent dopamine transporter (Bos taurus, UniProt P27922)
Vasopressin V1b receptor = Vasopressin V1b receptor (Homo sapiens, UniProt P47901)
[14] = biological target: 5-hydroxytryptamine receptor 7 (Homo sapiens, UniProt P34969)
Chain of 5-hydroxytryptamine receptor 7 (P34969 whole entry): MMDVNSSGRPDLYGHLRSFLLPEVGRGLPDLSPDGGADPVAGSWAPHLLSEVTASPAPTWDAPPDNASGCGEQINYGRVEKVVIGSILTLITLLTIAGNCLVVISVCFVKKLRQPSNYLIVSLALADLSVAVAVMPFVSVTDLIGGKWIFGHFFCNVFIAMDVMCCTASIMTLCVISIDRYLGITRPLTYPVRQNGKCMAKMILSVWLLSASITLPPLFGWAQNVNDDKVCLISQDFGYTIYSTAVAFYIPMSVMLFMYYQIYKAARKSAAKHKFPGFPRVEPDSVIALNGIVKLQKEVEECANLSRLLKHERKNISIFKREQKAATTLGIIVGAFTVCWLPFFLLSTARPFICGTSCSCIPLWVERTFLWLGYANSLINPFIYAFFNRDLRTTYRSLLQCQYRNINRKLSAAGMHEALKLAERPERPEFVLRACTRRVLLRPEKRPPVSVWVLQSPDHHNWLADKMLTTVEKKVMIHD

[15] = biological target: Gamma-aminobutyric acid type B receptor subunit 1 (UniProt Q9Z0U4)
[16] = biological target: Alpha-2B adrenergic receptor (Homo sapiens, UniProt P18089)
[17] = biological target: Alpha-2A adrenergic receptor (Homo sapiens, UniProt P08913)
Chain of Alpha-2A adrenergic receptor (P08913 whole entry): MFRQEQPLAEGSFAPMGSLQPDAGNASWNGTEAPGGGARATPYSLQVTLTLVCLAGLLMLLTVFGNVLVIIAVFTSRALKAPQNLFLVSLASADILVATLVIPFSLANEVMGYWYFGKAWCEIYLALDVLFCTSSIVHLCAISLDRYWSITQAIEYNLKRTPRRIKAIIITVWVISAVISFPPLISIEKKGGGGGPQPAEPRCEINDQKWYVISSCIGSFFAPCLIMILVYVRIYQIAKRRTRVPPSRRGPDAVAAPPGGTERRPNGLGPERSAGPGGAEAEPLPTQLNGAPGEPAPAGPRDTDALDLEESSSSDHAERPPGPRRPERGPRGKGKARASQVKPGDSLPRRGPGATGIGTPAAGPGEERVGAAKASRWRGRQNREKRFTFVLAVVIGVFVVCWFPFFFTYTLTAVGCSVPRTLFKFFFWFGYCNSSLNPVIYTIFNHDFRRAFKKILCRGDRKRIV

D(4) dopamine receptor = D(4) dopamine receptor (Rattus norvegicus, UniProt P30729)
D(1A) dopamine receptor = D(1A) dopamine receptor (Homo sapiens, UniProt P21728)
[18] = biological target: 5-hydroxytryptamine receptor 1D (Homo sapiens, UniProt P28221)
D(1B) dopamine receptor = D(1B) dopamine receptor (Homo sapiens, UniProt P21918)
[19] = biological target: Muscarinic acetylcholine receptor M1 (Homo sapiens, UniProt P11229)
Chain of Muscarinic acetylcholine receptor M1 (P11229 whole entry): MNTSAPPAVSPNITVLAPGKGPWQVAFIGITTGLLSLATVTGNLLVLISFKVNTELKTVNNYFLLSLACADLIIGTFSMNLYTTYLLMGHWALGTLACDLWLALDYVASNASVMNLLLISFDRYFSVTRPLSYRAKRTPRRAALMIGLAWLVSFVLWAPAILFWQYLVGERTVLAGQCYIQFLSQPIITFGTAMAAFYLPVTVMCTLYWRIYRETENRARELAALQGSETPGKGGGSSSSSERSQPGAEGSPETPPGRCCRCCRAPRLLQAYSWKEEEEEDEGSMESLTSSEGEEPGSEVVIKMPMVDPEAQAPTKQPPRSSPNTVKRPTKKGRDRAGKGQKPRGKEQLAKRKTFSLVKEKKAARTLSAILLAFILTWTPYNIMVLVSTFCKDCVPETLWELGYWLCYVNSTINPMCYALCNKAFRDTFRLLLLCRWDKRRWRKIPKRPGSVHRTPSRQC

[20] = biological target: Glutamate receptor ionotropic, NMDA 1 (Rattus norvegicus, UniProt P35439)
[21] = biological target: 5-hydroxytryptamine receptor 5A (Homo sapiens, UniProt P47898)
[22] = biological target: Muscarinic acetylcholine receptor M5 (Homo sapiens, UniProt P08912)
Chain of Muscarinic acetylcholine receptor M5 (P08912 whole entry): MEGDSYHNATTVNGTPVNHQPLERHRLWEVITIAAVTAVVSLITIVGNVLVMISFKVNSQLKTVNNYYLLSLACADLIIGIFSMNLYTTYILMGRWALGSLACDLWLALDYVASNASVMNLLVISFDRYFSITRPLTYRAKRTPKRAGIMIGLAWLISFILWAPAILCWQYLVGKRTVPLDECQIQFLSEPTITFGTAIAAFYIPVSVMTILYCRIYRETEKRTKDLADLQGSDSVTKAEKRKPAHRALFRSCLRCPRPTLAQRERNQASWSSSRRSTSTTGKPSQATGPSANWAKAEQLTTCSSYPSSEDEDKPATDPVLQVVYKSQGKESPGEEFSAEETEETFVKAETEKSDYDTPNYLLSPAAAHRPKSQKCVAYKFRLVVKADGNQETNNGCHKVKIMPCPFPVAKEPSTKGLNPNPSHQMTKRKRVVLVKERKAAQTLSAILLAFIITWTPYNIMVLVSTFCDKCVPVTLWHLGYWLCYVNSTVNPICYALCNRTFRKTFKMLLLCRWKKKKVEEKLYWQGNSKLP

[23] = biological target: Beta-1 adrenergic receptor (Homo sapiens, UniProt P08588)
[24] = biological target: Alpha-1A adrenergic receptor (Homo sapiens, UniProt P35348)
Chain of Alpha-1A adrenergic receptor (P35348 whole entry): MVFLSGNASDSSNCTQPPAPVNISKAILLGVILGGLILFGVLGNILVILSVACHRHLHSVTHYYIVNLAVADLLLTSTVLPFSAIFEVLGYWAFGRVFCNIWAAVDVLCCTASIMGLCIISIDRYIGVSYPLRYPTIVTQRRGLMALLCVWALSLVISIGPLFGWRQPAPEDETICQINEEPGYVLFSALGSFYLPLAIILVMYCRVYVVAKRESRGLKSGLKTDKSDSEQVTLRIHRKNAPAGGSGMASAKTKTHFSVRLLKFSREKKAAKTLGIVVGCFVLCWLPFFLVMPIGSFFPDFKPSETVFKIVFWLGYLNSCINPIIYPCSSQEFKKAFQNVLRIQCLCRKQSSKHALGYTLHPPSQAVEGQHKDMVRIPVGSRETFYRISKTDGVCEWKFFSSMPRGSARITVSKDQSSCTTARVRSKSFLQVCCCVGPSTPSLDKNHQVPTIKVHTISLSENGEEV

For `CC(CF)NCC(O)COc1cccc2[nH]c3ccccc3c12` [Fluorocarazolol,(S)], the Ki [1] was > 10 µM, the Ki (D(2) dopamine receptor) was > 10 µM and the Ki [2] was > 10 µM. The Ki [3] was > 10 µM, the Ki [4] was > 10 µM and the Ki [5] was 0.138 nM and 0.079 nM. The Ki [6] was > 10 µM, the Ki [7] was > 10 µM and the Ki (Mu-type opioid receptor) was > 10 µM. For the same compound, the Ki [8] was 4.6 µM and 0.677 µM, the Ki [9] was 1.89 µM and 4.4 µM and the Ki [10] was > 10 µM. For the same compound, the Ki [11] was 5.41 µM and > 10 µM, the Ki [12] was > 10 µM and 1.59 µM and the Ki [13] was > 10 µM. The Ki (Vasopressin V1b receptor) was > 10 µM, the Ki [14] was 7.07 µM and 6.4 µM and the Ki [15] was > 10 µM. For the same compound, the Ki [16] was > 10 µM and 8.85 µM, the Ki [17] was 3.36 µM and 2.87 µM and the Ki (D(4) dopamine receptor) was > 10 µM. For the same compound, the Ki (D(1A) dopamine receptor) was > 10 µM, the Ki [18] was 3.28 µM and 3.09 µM and the Ki (D(1B) dopamine receptor) was > 10 µM. For the same compound, the Ki [19] was 2.73 µM and 1.75 µM, the Ki [20] was > 10 µM and the Ki [21] was > 10 µM. For the same compound, the Ki [22] was 4.88 µM and 5.89 µM, the Ki [23] was 0.00045 µM and 0.000114 µM and the Ki [24] was 3.2 µM and 0.611 µM.
